Results: patent publication US8980933B2, “Combretastatin analogs for use in the treatment of cancer” (Universitat Bayreuth, priority 2010, dated 2015)

How the values were obtained:
HUVEC cells = experiment: Tube formation assay on matrigel; type: cell-based; conditions: 7.72 ng/mL
Method: 35 μL of media:matrigel (1:1) were added into wells of a 96-well plate and incubated at 37° C. for 30 minutes. A trypsinized HUVEC cell suspension was set to 800.000 cells/mL. In another 96-well plate 25 μL of the compound stock were serially diluted with 25 μL of media. 25 μL of compound dilutions and 25 μL of cell suspension were added to the matrigel coated 96-well plate and the cells were incubated over night. As a negative control, methanol was used as in place of the compound dilutions.

[1] = system: KB-V1/Vbl cervical carcinoma cells; experiment: MTT cell growth inhibition, KB-V1/Vbl; type: cell-based, human; conditions: Pgp-overexpressing KB-V1 cells
Method: The MCF-7/Topo cells were grown in E-MEM medium (Sigma) supplemented with 2.2 g/L NaHCO3, 110 mg/L sodium pyruvate and 5% FCS. The cells were maintained in a moisture-saturated atmosphere (5% CO2) at 37° C. in 75-mL culture flasks (Nunc, Wiesbaden, Germany). They were serially passaged following trypsinisation by 0.05% trypsin/0.02% EDTA (PAA laboratories, Clbe, Germany). Mycoplasma contamination was routinely monitored, and only mycoplasma-free cultures were used.
HL-60 leukemia cells (5×10^5/mL), and cells (5×10^4/mL) of 518A2 melanoma, HT-29 colon, KB-V1/Vbl cervix and MCF-7/Topo breast carcinoma were seeded out in 96-well tissue culture plates and cultured for 24 h. […] Blank and solvent controls were treated identically. MTT in phosphate buffered saline (5 mg/mL) was added to a final concentration of 0.05% (HL-60, 518A2) or 0.1% (HT-29, KB-V1/Vbl, MCF-7/Topo). After 2 h the formazan precipitate was dissolved in 10% sodium dodecylsulfate in DMSO containing 0.6% acetic acid in the case of the HL-60 cells. For the adherent 518A2, KB-V1/Vbl, MCF-7/Topo and HT-29 cells the microplates were swiftly turned to discard the medium before adding the solvent mixture. The microplates were gently shaken in the dark for 30 min and absorbance at 570 nm and 630 nm (background) was measured with an ELISA plate reader. All experiments were carried out in quadruplicate; the percentage of viable cells was calculated as the mean±SD with controls set to 100%.

518A2 cells = experiment: Mitochondrial membrane assay (JC-1), 518A2; type: cell-based, human; conditions: 5 μM, red/green fluorescence ratio relative to untreated controls (100%), mean ± SD
Method: Values represent means of four independent experiments±standard deviation.
Changes in mitochondrial membrane potential were determined by the Mitochondrial Membrane Detection Kit (Stratagene, La Jolla, Calif., USA) according to the manufacturer's procedure. 72 h following treatment with 5 μM of the test compounds, cell samples were centrifuged at 400 g for 5 min. The pellets were resuspended in 500 μL diluted JC-1 solution, incubated at 37° C. for 15 min (HL-60) and then centrifuged again for 5 min at 400 g. After washing, the pellets were resuspended in 100 μL PBS and transferred into the wells of a black 96-well plate. The red (λex=585 nm, λem=590 nm) and green (λex=510 nm, λem=527 nm) fluorescence intensities were measured and their ratio was calculated.

[2] = system: MCF-7/Topo breast carcinoma cells; experiment: MTT cell growth inhibition, MCF-7/Topo; type: cell-based, human; conditions: MCF-7/Topo (BCRP+)
Method: (§1) The effects of the compounds 5b, 6b, 8a, and 8e according to the present invention and of the reference compound 25f (Wang et al., J. Med. Chem. 2002, 45, 1697-1711) on cells of the following human tumor cell lines were evaluated: 518A2 melanoma, HL-60 leukemia, HT-29 colon carcinoma, KB-V1/Vbl cervical carcinoma, and MCF-7/Topo breast carcinoma.
(§2) The HL-60 cells were obtained from the German Collection of Biological Material (DSMZ), Braunschweig, Germany; the human 518A2 melanoma cells as well as the testicular germ cell tumor cell lines H12.1 and 1411HP were cultured in the department of oncology and hematology, Medical Faculty of the Martin-Luther University, Halle, Germany; the KBV1/Vbl and the MCF-7/Topo cells were obtained from the Institute of Pharmacy of the University Regensburg, Germany; and the colon HT-29 cells from the University Hospital Erlangen, Germany. The HL-60 and the HT-29 cells were grown in RPMI-1640 medium supplemented with 10% fetal calf serum (FCS), 100 IU/mL penicillin G, 100 μg/mL streptomycin sulfate, 0.25 μg/mL amphotericin B and 250 μg/mL gentamycine (all from Gibco, Egenstein, Germany). The 518A2 and the KB-V1/Vbl cells were cultured in Dulbecco's Modified Eagle Medium (D-MEM, Gibco) containing 10% FCS, 100 IU/mL penicillin G, 100 μg/mL streptomycin sulfate, 0.25 μg/mL amphotericin B and 250 μg/mL gentamycine. The MCF-7/Topo cells were grown in E-MEM medium (Sigma) supplemented with 2.2 g/L NaHCO3, 110 mg/L sodium pyruvate and 5% FCS. The cells were maintained in a moisture-saturated atmosphere (5% CO2) at 37° C. in 75-mL culture flasks (Nunc, Wiesbaden, Germany). They were serially passaged following trypsinisation by 0.05% trypsin/0.02% EDTA (PAA laboratories, Clbe, Germany). Mycoplasma contamination was routinely monitored, and only mycoplasma-free cultures were used.
MTT [3-(4,5-dimethylthiazol-2-yl)-2,5-diphenyltetrazolium bromide](ABCR) was used to identify viable cells which reduce it to a violet formazan (Mosmann, J. Immunol. Methods 1983, 65, 55-63). HL-60 leukemia cells (5×10^5/mL), and cells (5×10^4/mL) of 518A2 melanoma, HT-29 colon, KB-V1/Vbl cervix and MCF-7/Topo breast carcinoma were seeded out in 96-well tissue culture plates and cultured for 24 h. Incubation (5% CO2, 95% humidity, 37° C.) of the cells following treatment with the test compounds was continued for 24, 48 or 72 h. Blank and solvent controls were treated identically. […] The microplates were gently shaken in the dark for 30 min and absorbance at 570 nm and 630 nm (background) was measured with an ELISA plate reader. All experiments were carried out in quadruplicate; the percentage of viable cells was calculated as the mean±SD with controls set to 100%.

[3] = system: HT-29 colon carcinoma cells; experiment: MTT cell growth inhibition, HT-29; type: cell-based, human; conditions: for IC50 concentration: combretastatin A-4 resistant HT-29 cells; for cytotoxicity (comparison): multi-drug resistant HT-29 colon cancer cells
Method: as §1, §2
MTT [3-(4,5-dimethylthiazol-2-yl)-2,5-diphenyltetrazolium bromide](ABCR) was used to identify viable cells which reduce it to a violet formazan (Mosmann, J. Immunol. Methods 1983, 65, 55-63). HL-60 leukemia cells (5×10^5/mL), and cells (5×10^4/mL) of 518A2 melanoma, HT-29 colon, KB-V1/Vbl cervix and MCF-7/Topo breast carcinoma were seeded out in 96-well tissue culture plates and cultured for 24 h. Incubation (5% CO2, 95% humidity, 37° C.) of the cells following treatment with the test compounds was continued for 24, 48 or 72 h. Blank and solvent controls were treated identically. MTT in phosphate buffered saline (5 mg/mL) was added to a final concentration of 0.05% (HL-60, 518A2) or 0.1% (HT-29, KB-V1/Vbl, MCF-7/Topo). After 2 h the formazan precipitate was dissolved in 10% sodium dodecylsulfate in DMSO containing 0.6% acetic acid in the case of the HL-60 cells. For the adherent 518A2, KB-V1/Vbl, MCF-7/Topo and HT-29 cells the microplates were swiftly turned to discard the medium before adding the solvent mixture. The microplates were gently shaken in the dark for 30 min and absorbance at 570 nm and 630 nm (background) was measured with an ELISA plate reader. All experiments were carried out in quadruplicate; the percentage of viable cells was calculated as the mean±SD with controls set to 100%.

How did the “inhibition of tube formation” value (HUVEC cells) turn out when COc1ccc(-c2c(-c3cc(Cl)c(OC)c(OC)c3)ncn2C)cc1N [compound 5b, 1-methyl-5-(3-amino-4-methoxyphenyl)-4-(3-chloro-4,5-dimethoxyphenyl)-imidazole] was run?
Its value is “did not yield a correspondingly strong inhibition at this concentration”.

What about the IC50 concentration [1] of the same molecule?
The IC50 concentration was “single-digit nanomolar range”.

And the “Intact mitochondria [%] in 518A2 cells after 72 h” value (518A2 cells)?
Its value is 80 ± 9%.

And the “cytotoxicity / efficacy (comparison)” value [2]?
Its value is “noticeably less active but still superior to the known imidazole 25f”.

And the IC50 concentration [3]?
Its IC50 concentration is “single-digit nanomolar range”.

What about the “cytotoxicity (comparison)” value [3] of the same molecule?
Its value is “able to overcome the drug resistance in these cancer cells in vitro”.

With COc1ccc(-c2c(-c3cc(Br)c(OC)c(OC)c3)ncn2C)cc1N [compound 6b, 1-methyl-5-(3-amino-4-methoxyphenyl)-4-(3-bromo-4,5-dimethoxyphenyl)-imidazole] as the molecule, how does the “inhibition of tube formation” value (HUVEC cells) read?
The value was “pronounced inhibition of tube formation”.

And the IC50 concentration [1]?
Its IC50 concentration is “single-digit nanomolar range”.

What about the “Intact mitochondria [%] in 518A2 cells after 72 h” value (518A2 cells) of the same molecule?
The value was 80 ± 9%.

And the “cytotoxicity / efficacy (comparison)” value [2]?
The value was “noticeably less active but still superior to the known imidazole 25f”.

What about the IC50 concentration [3] of the same molecule?
Its IC50 concentration is “single-digit nanomolar range”.

What about the “cytotoxicity (comparison)” value [3] of the same molecule?
Its value is “able to overcome the drug resistance in these cancer cells in vitro”.
